Where two headings read alike, the source gives them in different places.

Data set [1] is described as follows: Stability of target compounds in mouse plasma, HPLC. The data set is classed as in vitro ADME, C57BL/6 mice. The conditions noted are these: 50 μM, 37 °C. The method, then: (§1) The stability of the target compounds was tested first, and excellent stability was essential for physiological function evaluation. Phosphate-buffered saline (PBS) of different pH values was used to evaluate the stability of the target compounds in a weakly acidic tumor microenvironment (pH 6.5) versus a weakly alkaline normal physiological environment (pH 7.4). […] The stability of the target compounds in mouse and rat plasma was excellent. The concentrations of all target compounds remained at >80% of the initial concentrations after 24 h, with the concentrations of compounds 1c, 2c, and 3c being 89%, 88%, and 83% in mouse plasma and 86%, 84%, and 81% in rat plasma, respectively (Figure 3c,d).
(§2) PBS (pH 7.4) was made with 137 mM NaCl, 2.7 mM KCl, 10 mM Na2HPO4, and 1.8 mM KH2PO4, while PBS (pH 6.5) was made with 24.6 mM Na2HPO4 and 175.4 mM NaH2PO4. The target compounds were dissolved into the different buffers (50 μM; 1% DMSO), and the mixtures were incubated at 37 °C. A 100-μL sample was transferred to a vial for HPLC analysis at 1, 2, 4, 8, 12, and 24 h. C57BL/6 mice and SD rat orbital whole blood was collected into anticoagulation tubes and centrifuged at 4000× g for 5 min at 4 °C to obtain plasma. The target compounds were dissolved into the plasma (50 μM; 1% DMSO) and incubated at 37 °C. Each sample (100 μL) was collected and precipitated using 100 μL of acetonitrile. The mixture was vortexed for 5 min and centrifuged at 10,000× g for 10 min. The supernatant was transferred to a vial for HPLC analysis after 1, 2, 4, 8, 12, and 24 h.

Data set [2] deals with MCF-7 human breast cancer cells. As to the kind of experiment: In vitro cytotoxicity (MTT assay) in MCF-7 cells with or without NTR. The data set is classed as cell-based. The conditions noted are these: for IC50: Homo sapiens, MCF7, MCF-7, 24 h, MTT. The method, then: (§3) The cytotoxicity of the target compounds 1c–6c were evaluated in MCF-7 human breast cancer cells and HT29 human colon cancer cells. These two cell lines were chosen because 5′-DFUR is currently used to treat breast and gastrointestinal tumors. The cells were incubated with the target compounds at various concentrations for 24 h in the presence or absence of NTR. The cell viability and proliferation behavior were assessed by 3-(4,5-dimethylthiazol-2-yl)-2,5-diphenyltetrazolium (MTT) assay. The half-maximal inhibitory concentration values of the tested compounds for inhibiting cell proliferation are shown in Table 1.
(§4) MCF-7 human breast cancer cells or HT29 human colon cancer cells purchased from the National Collection of Authenticated Cell Cultures were cultured in RPMI 1640 medium, and McCoy’s 5A medium supplemented with 10% fetal bovine serum and 1% penicillin-streptomycin in a humidified 5% CO2 incubator at 37 °C. Cells in the logarithmic growth phase were inoculated into 96-well plates at a density of 1.0 × 10^4 cells per well and cultured for 24 h. The target compounds were dissolved in DMSO and diluted in medium to different concentrations. The cells were then incubated with different concentrations of the target compound for 24 h. The cells in the NTR treatment group were incubated with various concentrations of compounds, NTR (final concentration, 50 µg/mL) and NADH (final concentration, 2 mM) for 24 h. Cell viability and proliferation were measured by MTT assay. Cell viability was calculated according to the following formula: cell viability (%) = (OD value of treatment group–OD value of blank group)/(OD value of control group–OD value of blank group) × 100. The half-maximal inhibitory concentration values were calculated from concentration-response curves using GraphPad PRISM (version 5.0, GraphPad, San Diego, CA, USA).
On the technique in general: Tetrazolium assays rely on reduction of a dye to a coloured formazan, in cell work by metabolically active cells.

Another data set has as its system HT29 colon cancer cells. As to the kind of experiment: In vivo antitumor activity in HT29 tumor-bearing mice. The method, then:
Compound 2c, which has excellent stability, a high metabolic rate, and strong cytotoxicity under NTR conditions in vitro, was selected for the in vivo evaluation of antitumor activity in tumor-bearing mice. Tumor-bearing mice were generated by the axillary injection of HT29 colon cancer cells into C57BL/6 mice. When the tumors grew to approximately 100–150 mm^3, the mice were randomly divided into negative control (vehicle), compound 2c (50 mg/kg), and positive control 5′-DFUR (50 mg/kg) groups (n = 6 each). The mice were injected intraperitoneally every 2 days for 4 weeks, and the tumor volume and body weight of the mice were measured every 2 days. No death occurred in any group of mice during the experimental period.
Four-week-old C57BL/6 mice were purchased from Jinan Pengyue Experimental Animal Breeding Co. Ltd. (Jinan, China). The mice were housed in cages under a 12-h light/dark cycle from 7:00 to 19:00 at controlled temperatures (25–26 °C) and relative humidity (50 ± 10%) throughout the experimental period. All animals were allowed to eat and drink freely unless otherwise stated and allowed to acclimate for 1 week before the experiment. All animal experimental protocols were performed in accordance with applicable institutional and governmental regulations concerning the ethical use of animals (AP2024022954).
The tumor-bearing mice model was established by the subcutaneous injection of HT29 cells (1 × 10^7 cells/mL) purchased from the National Collection of Authenticated Cell Cultures to the right axilla of C57BL/6 mice (100 µL/mouse). When the tumor size reached 100–150 mm^3, the mice were evenly divided into negative control (vehicle), group 2c (50 mg/kg), and 5′-DFUR (50 mg/kg) groups (n = 6 each). Compound 2c and 5′-DFUR were dissolved in a solution containing 10% ethanol, 10% castor oil, and 80% saline that also served as the negative control. The mice were injected intraperitoneally every 2 days for 4 weeks, and the tumor volumes and body weights of the mice were measured every 2 days. Tumor volume was calculated using the following formula: tumor volume = length (mm) × width (mm) × width (mm) × 0.5. The TGI rate was determined as follows: TGI = 1 − (treatment final volume − treatment initial volume)/(control final volume − control initial volume) × 100%.

Data set [3] can be described thus: Stability of target compounds in rat plasma, HPLC. The data set is classed as in vitro ADME, SD rat. The conditions noted are these: 50 μM, 37 °C. The method, then:
as §1, §2

In data set [4] the test system is HT29 human colon cancer cells. The data set is described as follows: In vitro cytotoxicity (MTT assay) in HT29 cells with or without NTR. Type of data set: cell-based. The conditions noted are these: for IC50: Homo sapiens, HT-29, HT29, 24 h, MTT. The method, then: as §3, §4
Setting [5] is: medium with NTR and NADH 2 mM, read-out: IC50 NTR.
[6] abbreviates: medium without NTR, read-out: IC50 NTR-Free.

The IC50 is the point on the concentration scale where inhibition reaches its midpoint. As for `C[C@H]1O[C@@H](n2cc(F)c(=O)n(Cc3ccc([N+](=O)[O-])o3)c2=O)[C@H](O)[C@@H]1O` [Compound 2c], in data set [1], the “concentration relative to initial concentration after 24 h in mouse plasma” value amounted to 88%. The IC50 stood at 80.3 µM in data set [2] (setting [5]), 400 µM in data set [2] (setting [6]), 57.4 µM in data set [4] (setting [5]) and 437 µM in data set [4] (setting [6]). In addition, the “IC50 (NTR-Free)/ IC50 (NTR)” value is 4.99 in data set [2] (MCF-7, selectivity ratio) and 7.62 in data set [4] (HT29, selectivity ratio). Also, the “drug-related toxic reactions (in words)” value in the data set on HT29 colon cancer cells (50 mg/kg i.p. every 2 days for 4 weeks) was “No significant drug-related toxic reactions were observed”. The “body weight of mice (in words)” value with HT29 colon cancer cells (50 mg/kg i.p. every 2 days for 4 weeks, versus positive control 5′-DFUR group) was “smaller weight fluctuations and were slightly higher than those of the positive control group”. Moreover, the “tumor growth inhibition (TGI) rate” value in the data set with HT29 colon cancer cells (50 mg/kg intraperitoneally every 2 days for 4 weeks, HT29 tumor-bearing C57BL/6 mice) is 77.5%. Also, the “concentration relative to initial concentration after 24 h in rat plasma” value in data set [3] is listed as 84%.

Values taken from publication PMC11547703, “Design, Synthesis, and Evaluation of Doxifluridine Derivatives as Nitroreductase-Responsive Anticancer Prodrugs” (Molecules, 2024).
